This is an account of results in patent US20090099169A1, “Benzofuran Compounds As EP1 Receptor Antagonists” (GLAXO GROUP LIMITED, priority 2006, published 2009).

One assay concerns the target T1, human EP3 receptor (Homo sapiens, UniProt P43115).
T1 construct: expressed in transfected cells; host or cells: CHO-K1
T1 sequence (P43115 1-390): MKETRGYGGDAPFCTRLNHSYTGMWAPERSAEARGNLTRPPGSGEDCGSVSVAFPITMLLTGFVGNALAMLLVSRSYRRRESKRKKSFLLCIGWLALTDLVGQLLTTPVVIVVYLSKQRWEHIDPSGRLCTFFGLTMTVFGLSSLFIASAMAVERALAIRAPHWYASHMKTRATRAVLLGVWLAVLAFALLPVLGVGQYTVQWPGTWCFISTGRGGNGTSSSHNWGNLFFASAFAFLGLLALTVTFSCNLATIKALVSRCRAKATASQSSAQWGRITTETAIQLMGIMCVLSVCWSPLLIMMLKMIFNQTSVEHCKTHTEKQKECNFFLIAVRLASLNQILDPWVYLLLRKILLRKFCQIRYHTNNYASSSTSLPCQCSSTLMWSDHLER
As to the kind of experiment: human EP3 calcium mobilisation assay. The class given is cell-based. The conditions noted are these: CHO-K1 cells, antagonism of PGE2; averages of a number of experiments; read-out: functional pKi value (human EP3 calcium mobilisation assay) (converted). How it is done:
(§1) Briefly, the antagonist properties of compounds are assessed by their ability to inhibit the mobilisation of intracellular calcium ([Ca^2+]i) in response to activation of EP1 or EP3 receptors by the natural agonist hormone prostaglandin E2 (PGE2). Increasing concentrations of antagonist reduce the amount of calcium that a given concentration of PGE2 can mobilise. The net effect is to displace the PGE2 concentration-effect curve to higher concentrations of PGE2. The amount of calcium produced is assessed using a calcium-sensitive fluorescent dye such as Fluo-4, AM and a suitable instrument such as a Fluorimetric Imaging Plate Reader (FLIPR). Increasing amounts of [Ca^2+]i produced by receptor activation increase the amount of fluorescence produced by the dye and give rise to an increasing signal. The signal may be detected using the FLIPR instrument and the data generated may be analysed with suitable curve-fitting software.
(§2) The human EP1 or EP3 calcium mobilisation assay (hereafter referred to as ‘the calcium assay’) utilises Chinese hamster ovary-K1 (CHO-K1) cells into which a stable (PCIN; BioTechniques 20 (1996): 102-110) vector containing either EP1 or EP3 cDNA has previously been transfected. Cells are cultured in suitable flasks containing culture medium such as DMEM:F-12 supplemented with 10% v/v foetal calf serum, 2 mM L-glutamine, 0.25 mg/ml geneticin, 100 μM flurbiprofen and 10 μg/ml puromycin.
(§3) For assay, cells are harvested using a proprietary reagent that dislodges cells such as Versene. Cells are re-suspended in a suitable quantity of fresh culture media for introduction into a 384-well plate. Following incubation for 24 hours at 37° C. the culture media is replaced with a medium containing Fluo-4 and the detergent pluronic acid, and a further incubation takes place. Concentrations of compounds are then added to the plate in order to construct concentration-effect curves. This may be performed on the FLIPR in order to assess the agonist properties of the compounds. Concentrations of PGE2 are then added to the plate in order to assess the antagonist properties of the compounds.
(§4) The data so generated may be analysed by means of a computerised curve-fitting routine. The concentration of compound that elicits a half-maximal inhibition of the calcium mobilisation induced by PGE2 (pIC50) may then be estimated.
A general note: A change in cytosolic calcium serves as a functional read-out for many receptors and channels.

Assay [1] has as its target T2, human EP1 receptor (Homo sapiens, UniProt P34995).
T2 sequence (P34995 1-402): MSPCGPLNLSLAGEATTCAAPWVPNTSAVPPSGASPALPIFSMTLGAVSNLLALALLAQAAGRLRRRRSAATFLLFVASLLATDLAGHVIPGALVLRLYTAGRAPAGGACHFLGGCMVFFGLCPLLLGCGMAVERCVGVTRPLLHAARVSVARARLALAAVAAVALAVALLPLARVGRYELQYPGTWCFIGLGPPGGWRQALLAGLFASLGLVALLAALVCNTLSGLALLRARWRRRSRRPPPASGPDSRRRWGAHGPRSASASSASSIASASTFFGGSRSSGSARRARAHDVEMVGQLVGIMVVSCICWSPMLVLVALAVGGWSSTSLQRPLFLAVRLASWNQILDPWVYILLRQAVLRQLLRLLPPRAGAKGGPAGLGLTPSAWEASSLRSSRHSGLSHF
The assay can be described thus: human EP1 calcium mobilisation assay. The class given is cell-based. On the set-up: expressed in transfected cells. The conditions noted are these: CHO-K1 cells, antagonism of PGE2; averages of a number of experiments; read-out: functional pKi value (human EP1 calcium mobilisation assay) (converted). As for the experimental part:
as §1, §2, §3, §4

Assay [2] concerns the target T2, human EP1 receptor. The assay can be described thus: Binding assay for the human prostanoid EP1 receptor (radioligand competition). To be noted: CHO-K1 membranes; [3H]-PGE2 for Examples 1-17, 19, 33, 34, 60 and 61, 3-{2-[5-Bromo-2-(2,4-difluorobenzyloxy)-phenyl]-5-methyl-pyrrol-1-yl}-6-[3H3-methoxy]methoxy-benzoic acid for the remaining; averages of a number of experiments; read-out: pIC50 value (binding assay for the human prostanoid EP1 receptor) (converted). On the set-up: expressed in transfected cells; host or cells: CHO-K1 (membranes). How it is done: Compound potencies are determined using a radioligand binding assay. In this assay compound potencies are determined from their ability to compete with tritiated prostaglandin E2 ([^3H]-PGE2) for binding to the human EP1 receptor.
This assay utilises Chinese hamster ovary-K1 (CHO-K1) cells into which a stable vector containing the EP1 cDNA has previously been transfected. Cells are cultured in suitable flasks containing culture medium such as DMEM:F-12 supplemented with 10% v/v foetal calf serum, 2 mM L-glutamine, 0.25 mg/ml geneticin, 10 μg/ml puromycin and 10 μM indomethacin.
Cells are detached from the culture flasks by incubation in calcium and magnesium free phosphate buffered saline containing 1 mM disodium ethylenediaminetetraacetic acid (Na2EDTA) and […] indomethacin for 5 min. The cells are isolated by centrifugation at 250×g for 5mins and suspended in an ice cold buffer such as 50 mM Tris, 1 mM Na2EDTA, 140 mM NaCl, 10 μM indomethacin (pH 7.4). The cells are homogenised using a Polytron tissue disrupter (2×10 s burst at full setting), centrifuged at 48,000×g for 20mins and the pellet containing the membrane fraction is washed (optional) three times by suspension and centrifugation at 48,000×g for 20mins. The final membrane pellet is suspended in an assay buffer such as 10 mM 2-[N-morpholino]ethanesulphonic acid, 1 mM Na2EDTA, 10 mM MgCl2 (pH 6). Aliquots are frozen at −80° C. until required.
For the binding assay the cell membranes, competing compounds and [^3H]-PGE2 (3 nM final assay concentration) are incubated in a final volume of 100 μl for 30 min at 30° C. All reagents are prepared in assay buffer. Reactions are terminated by rapid vacuum filtration over GF/B filters using a Brandell cell harvester. The filters are washed with ice cold assay buffer, dried and the radioactivity retained on the filters is measured by liquid scintillation counting in Packard TopCount scintillation counter.
The data are analysed using non linear curve fitting techniques to determine the concentration of compound producing 50% inhibition of specific binding (IC50).
Alternatively a similar assay may be carried out using 3-{2-[5-Bromo-2-(2,4-difluoro-benzyloxy)-phenyl]-5-methyl-pyrrol-1-yl}-6-[^3H3-methoxy]methoxy-benzoic acid instead of [^3H]-PGE2.
For the binding assay using 3-{2-[5-Bromo-2-(2,4-difluoro-benzyloxy)-phenyl]-5-methyl-pyrrol-1-yl}-6-[^3H3-methoxy]methoxy-benzoic acid instead of [^3H]-PGE2 the assay is carried out using a similar procedure to that described above using [^3H]-PGE2 with the following changes:
The cell membranes, competing compounds and 3-{2-[5-Bromo-2-(2,4-difluoro-benzyloxy)-phenyl]-5-methyl-pyrrol-1-yl}-6-[^3H3-methoxy]methoxy-benzoic acid (0.2 nM final assay concentration) are incubated in a final volume of 400 μl for 45 min at 37° C. All reagents are prepared in assay buffer. Reactions are terminated by rapid vacuum filtration over GF/B filters using a Brandell cell harvester. The filters are washed with water at ambient temperature, dried and the radioactivity retained on the filters is measured by liquid scintillation counting in Packard TopCount scintillation counter.
The preparation of 3-{2-[5-Bromo-2-(2,4-difluoro-benzyloxy)-phenyl]-5-methyl-pyrrol-1-yl}-6-methoxy-benzoic acid is described in WO 03/101959 and in Hall et al, Biorg. Med. Chem. Lett., 2007, 17, 916-920. The tritiated version may be prepared via conventional routes, e.g. from 3-{2-[5-bromo-2-(2,4-difluoro-benzyloxy)-phenyl]-5-methyl-pyrrol-1-yl}-6-hydroxy-benzoic acid or 3-{2-[5-bromo-2-(2,4-difluoro-benzyloxy)-phenyl]-5-methyl-pyrrol-1-yl}-6-hydroxy-benzoic acid methyl ester.
For orientation: Loss of bound radioactivity is the signal in a displacement assay; it reports binding, not function.

The structures appear in SMILES notation. Structures can show the parent of a compound that is named as a salt.

For the molecule `Cc1cc(NC(=O)OCC2CCNCC2)nn1Cc1cc(Cl)cc2cc(C(C)C)oc12` [Example 4, 4-Piperidinylmethyl (1-{[5-chloro-2-(1-methylethyl)-1-benzofuran-7-yl]methyl}-5-methyl-1H-pyrazol-3-yl)carbamate Hydrochloride], the Ki was 0.501 to 10 µM at human EP3 receptor and no more than 316 nM at human EP1 receptor [1]. With `Cc1cc(C(=O)O)nn1Cc1cc(Cl)cc2cc(C(C)(C)C)oc12` [Example 27, 1-{[5-Chloro-2-(1,1-dimethylethyl)-1-benzofuran-7-yl]methyl}-5-methyl-1H-pyrazole-3-carboxylic Acid], on human EP1 receptor [2], the IC50 is no more than 100 nM. Moreover, the Ki at human EP1 receptor [1] was no more than 316 nM.

With `Cc1cc(C(=O)NC2CCOCC2)nn1Cc1cc(Cl)cc2cc(C3CCCCC3)oc12` [Example 29, 1-[(5-Chloro-2-cyclohexyl-1-benzofuran-7-yl)methyl]-5-methyl-N-(tetrahydro-2H-pyran-4-yl)-1H-pyrazole-3-carboxamide], the IC50 on human EP1 receptor [2] is no more than 100 nM. Besides, the Ki on human EP1 receptor [1] was no more than 316 nM.

On to `Cc1cc(C(=O)N2CCOCC2)nn1Cc1cc(Cl)cc2cc(C3CC3)oc12` [Example 32, 4-({1-[(5-chloro-2-cyclopropyl-1-benzofuran-7-yl)methyl]-5-methyl-1H-pyrazol-3-yl}carbonyl)morpholine], for which the results for the Ki at human EP3 receptor and at human EP1 receptor [1] were 0.501 to 10 µM and no more than 316 nM, respectively.

As to `CC(C)c1cc2cc(Cl)cc(Cc3ccc(C(N)=O)o3)c2o1` [Example 37, 5-{[5-Chloro-2-(1-methylethyl)-1-benzofuran-7-yl]methyl}-2-furancarboxamide], the IC50 at human EP1 receptor [2] is no more than 100 nM. On human EP1 receptor [1], the Ki is no more than 316 nM.

As to `CC(C)NC(=O)c1ccc(Cc2cc(Cl)cc3cc(C(C)C)oc23)o1` [Example 38, 5-{[5-Chloro-2-(1-methylethyl)-1-benzofuran-7-yl]methyl}-N-(1-methylethyl)-2-furancarboxamide], the Ki at human EP3 receptor was 0.501 to 10 µM. Turning to `CC(C)c1cc2cc(Cl)cc(Cc3ccc(C(=O)NN(C)C)o3)c2o1` [Example 39, 5-{[5-Chloro-2-(1-methylethyl)-1-benzofuran-7-yl]methyl}-N′,N′-dimethyl-2-furancarbohydrazide], the Ki is 0.501 to 10 µM at human EP3 receptor and no more than 316 nM on human EP1 receptor [1]. With `CC(C)c1cc2cc(Cl)cc(Cc3cccc(C(=O)NCC4CCNCC4)n3)c2o1` [Example 47, 6-{[5-Chloro-2-(1-methylethyl)-1-benzofuran-7-yl]methyl}-N-(4-piperidinylmethyl)-2-pyridinecarboxamidehydrochloride], the Ki on human EP3 receptor is 0.501 to 10 µM. Turning to `CC(C)c1cc2cc(Cl)cc(Cc3ccc(C(=O)NCC4CCNCC4)o3)c2o1` [Example 48], the IC50 at human EP1 receptor [2] was no more than 100 nM. The Ki on human EP1 receptor [1] is 1000 to 1580 nM. In the case of `CNCc1ccc(NC(=O)c2cc(C)n(Cc3cc(Br)cc4cc(C(C)C)oc34)n2)cc1` [Example 50, 1-{[5-Bromo-2-(1-methylethyl)-1-benzofuran-7-yl]methyl}-5-methyl-N-{4-[(methylamino)methyl]phenyl}-1H-pyrazole-3-carboxamidehydrochloride], the IC50 at human EP1 receptor [2] is no more than 100 nM. The Ki at human EP1 receptor [1] is no more than 316 nM. `Cc1cc(C(=O)Nc2ccc(CN3CCOCC3)cc2)nn1Cc1cc(Br)cc2cc(C(C)C)oc12` [Example 52, 1-{[5-Bromo-2-(1-methylethyl)-1-benzofuran-7-yl]methyl}-5-mthyl-N-[4-(4-morpholinylmethyl)phenyl]-1H-pyrazole-3-carboxamidehydrochloride]: on human EP1 receptor [2], the IC50 is no more than 100 nM. For the same molecule, the Ki at human EP1 receptor [1] is no more than 316 nM.

For the molecule `Cc1cc(C(=O)NC2CCOCC2)nn1Cc1cc(Cl)cc2cc(C(C)C)oc12` [Example 60, 1-{[5-chloro-2-(1-methylethyl)-1-benzofuran-7-yl]methyl}-5-methyl-N-(tetrahydro-2H-pyran-4-yl)-1H-pyrazole-3-carboxamide], the IC50 on human EP1 receptor [2] was no more than 100 nM. Besides, the Ki at human EP1 receptor [1] is no more than 316 nM. As to `Cc1cc(NC(=O)C(C)C)nn1Cc1cc(C#N)cc2cc(C(C)C)oc12` [Example 68, N-(1-{[5-Cyano-2-(1-methylethyl)-1-benzofuran-7-yl]methyl}-5-methyl-1H-pyrazol-3-yl)-2-methylpropanamide], the IC50 on human EP1 receptor [2] was no more than 100 nM. Moreover, the Ki at human EP1 receptor [1] is no more than 316 nM.
